According to US20130224239A1, “ALCOHOLIC EXTRACT OF FUNGI OF GENUS […] AND USE THEREOF” (KING SAUD UNIVERSITY, priority 2011, published 2013):
Converted amounts (≈) assume the structure as drawn.

What was measured:
Format in all cases: cell-based
[1] = tested on: Staphylococcus aureus; assay: Minimum inhibitory concentration, agar well diffusion; conditions: against Staphylococcus aureus
Excerpt: (§1) For antimicrobial screening the well known disc diffusion and agar well diffusion methods were used, together with the determination of minimum inhibitory concentration (MIC), see Duguid et al., Microbial Infections, The English Language Book Society, Churchill Livingston, Edingburgh, London, 1978; vol. 1, page 110.
Agar well diffusion method: On the other hand, the agar well diffusion method was employed for determination of the minimum inhibitory concentration (MIC). The test organisms were separately seeded in the agar medium. The wells (10 mm in diameter) were cut from the agar and […] (different concentrations) was transferred into them. After incubation period, following suitable conditions for the test organism, the diameter of the inhibition zone around the discs was measured in millimeters. The obtained result was the mean of three experiments.
The minimum inhibitory concentration (MIC) of Cunninghamella blakesleeana, C. elegans, C. homothallica and successive extracts and isolated compounds of Cunninghamella elegans against Staphylococcus aureus was determined.
Minimum inhibitory concentration (MIC): The lowest concentration of an antimicrobial agent that will inhibit a visible growth of a microorganism after overnight incubation.

[2] = tested on: Salmonella typhimuium (RCMB 0104); assay: Antimicrobial screening, disc diffusion; conditions: Salmonella typhimuim; compounds isolated from Cunninghamella elegans
Experimental: (§2) The alcoholic extracts obtained were used for testing their antimicrobial activity. Each extract (0.5 g) was dissolved in 10 ml water. Same concentrations for the successive extracts (using diethyl ether, chloroform, ethyl acetate and n-butanol) were also prepared.
(§3) The representatives of Gram negative bacteria, namely Salmonella typhimuium (RCMB 0104), Escherichia coli (RCMB 0103), Pseudomonas aeruginosa (RCMB 0102) and Gram positive bacteria, namely Bacillus subtilis (RCMB 0107), Staphylococcus aureus (RCMB 0106), Streptococcus pyogenes (RCMB 0109), unicellular fungi, namely Candida albicans (RCMB 5002) and filamentous fungi, namely Aspergillus fumigatus (RCMB 2003) and Penicllium expansum (RCMB 1006) were used as test organisms (RCMB: The Regional Center for Mycology and Biotechnology, Al-azhar University Nasser City, Cairo, Egypt).
as §1
(§4) Disc diffusion method: The agar disc diffusion method is employed for the determination of antimicrobial activities of the extracts of the investigated fungal species. Sterilized paper discs (Whatman No. 1) ([…]) were separately soaked in the extracts and transferred onto the surface of growth media seeded with the test organism. After incubation period, following suitable conditions for the test organism, the diameter of the inhibition zone around the discs was measured in millimeters.
Each fungal species was grown on malt extract media at 28±2° C. for 14 days. The metabolites of the fungal species were screened for antimicrobial activity.

[3] = tested on: Escherichia coli (RCMB 0103); assay: Antimicrobial screening, disc diffusion; conditions: compounds isolated from Cunninghamella elegans
Experimental: as §2, §3, §1
as §4, with “millimeters. The obtained result was the mean of three experiments.” for “millimeters.”
(§5) Each fungal species was grown on malt extract media at 28±2° C. for 14 days. The metabolites of the fungal species were screened for antimicrobial activity. The inhibition zones around each disc were measured, in millimeter, and recorded (Tables 1).

[4] = tested on: Aspergillus fumigatus (RCMB 2003); assay: Antimicrobial screening, disc diffusion; conditions: compounds isolated from Cunninghamella elegans
Experimental: as §2, §3, §1
as §4, with “millimeters. The obtained result was the mean of three experiments.” for “millimeters.”
as §5

[5] = tested on: Penicllium expansum (RCMB 1006); assay: Antimicrobial screening, disc diffusion; conditions: Penicillium expansum; compounds isolated from Cunninghamella elegans
Experimental: as §2, §3, §1
as §4, with “millimeters. The obtained result was the mean of three experiments.” for “millimeters.”
as §5

[6] = tested on: Staphylococcus aureus (RCMB 0106); assay: Antimicrobial screening, disc diffusion; conditions: compounds isolated from Cunninghamella elegans
Experimental: as §2, §3, §1
as §4, with “millimeters. The obtained result was the mean of three experiments.” for “millimeters.”
as §5

[7] = tested on: Candida albicans (RCMB 5002); assay: Antimicrobial screening, disc diffusion; conditions: compounds isolated from Cunninghamella elegans
Experimental: as §2, §3, §1
as §4, with “millimeters. The obtained result was the mean of three experiments.” for “millimeters.”
as §5

[8] = tested on: Streptococcus pyogenes (RCMB 0109); assay: Antimicrobial screening, disc diffusion; conditions: compounds isolated from Cunninghamella elegans
Experimental: as §2, §3, §1
as §4, with “millimeters. The obtained result was the mean of three experiments.” for “millimeters.”
as §5

[9] = tested on: Bacillus subtilis (RCMB 0107); assay: Antimicrobial screening, disc diffusion; conditions: compounds isolated from Cunninghamella elegans
Experimental: as §2, §3, §1
as §4, with “millimeters. The obtained result was the mean of three experiments.” for “millimeters.”
as §5

[10] = tested on: Pseudomonas aeruginosa (RCMB 0102); assay: Antimicrobial screening, disc diffusion; conditions: Pseudomonas aeurginosa; compounds isolated from Cunninghamella elegans
Experimental: as §2, §3, §1
as §4, with “millimeters. The obtained result was the mean of three experiments.” for “millimeters.”
as §5

Compound	Minimum inhibitory concentration [1]	Diameter of inhibition zone [2]	Diameter of inhibition zone [3]	Diameter of inhibition zone [4]	Diameter of inhibition zone [5]	Diameter of inhibition zone [6]	Diameter of inhibition zone [7]	Diameter of inhibition zone [8]	Diameter of inhibition zone [9]	Diameter of inhibition zone [10]	MIC ([1]; read-out: Minimum inhibitory concentration)
O=c1ccn([C@@H]2O[C@H](CO)[C@@H](O)[C@H]2O)c(=O)[nH]1 [Compound 5, pyrimidine-2,4-dion, 1-ribose]	150 µg/mL (≈ 614 µM)	00.0 mm	00.0 mm	00.0 mm	00.0 mm	11.0 ± 0.1 mm	00.0 mm	00.0 mm	00.0 mm	00.0 mm	–
C=C(CC(=O)O)C(=O)OC [Compound 8, 3-(methoxycarbonyl)-but-3-enoic acid]	–	00.0 mm	00.0 mm	00.0 mm	00.0 mm	07.0 ± 0.5 mm	00.0 mm	00.0 mm	00.0 mm	00.0 mm	210 µg/mL (≈ 1460 µM)
